Results from publication PMC10648927, “Examining the activity of cefepime-taniborbactam against Burkholderia cepacia complex and Burkholderia gladioli isolated from cystic fibrosis patients in the United States” (Antimicrobial Agents and Chemotherapy, 2023).
≈ marks a conversion by molar mass, not a printed value.

Assays:
Design in all cases: agar dilution MIC, growth inhibition of clinical Burkholderia isolates
B. multivorans AU14364 = test system: T1, B. multivorans AU14364; assay: microbe, parasite or virus in culture; conditions: Burkholderia multivorans, AU14364
T1 construct: AU14364
Procedure, shortened: (§1)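 MICs by agar dilution against Bcc and B. gladioli clinical isolates, interpreted with CLSI breakpoints where available; K. pneumoniae ATCC 700603 (SHV-18) and ATCC BAA-1705 (KPC) served as quality controls.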

[1] = test system: T2, B. pseudomultivorans AU19682; assay: organism not typed
T2 construct: AU19682
Procedure, shortened: as §1

B. multivorans AU30760 = test system: T3, B. multivorans AU30760; assay: microbe, parasite or virus in culture; conditions: Burkholderia multivorans, AU30760
T3 construct: AU30760
Procedure, shortened: as §1

B. contaminans AU22662 = test system: T4, B. contaminans AU22662; assay: organism not typed
T4 construct: AU22662
Procedure, shortened: as §1

B. multivorans AU28442 = test system: T5, B. multivorans AU28442; assay: microbe, parasite or virus in culture; conditions: Burkholderia multivorans, AU28442
T5 construct: AU28442
Procedure, shortened: as §1

B. cenocepacia AU12659 = test system: T6, B. cenocepacia AU12659; assay: microbe, parasite or virus in culture; conditions: Burkholderia cenocepacia, AU12659
T6 construct: AU12659
Procedure, shortened: as §1

B. multivorans AU30050 = test system: T7, B. multivorans AU30050; assay: microbe, parasite or virus in culture; conditions: Burkholderia multivorans, AU30050
T7 construct: AU30050
Procedure, shortened: as §1

B. multivorans AU23995 = test system: T8, B. multivorans AU23995; assay: microbe, parasite or virus in culture; conditions: Burkholderia multivorans, AU23995
T8 construct: AU23995
Procedure, shortened: as §1

B. vietnamiensis AU5003 = test system: T9, B. vietnamiensis AU5003; assay: microbe, parasite or virus in culture; conditions: Burkholderia vietnamiensis, AU5003
T9 construct: AU5003
Procedure, shortened: as §1

B. multivorans AU10047 = test system: T10, B. multivorans AU10047; assay: microbe, parasite or virus in culture; conditions: Burkholderia multivorans, AU10047
T10 construct: AU10047
Procedure, shortened: as §1

B. multivorans AU10086 = test system: T11, B. multivorans AU10086; assay: microbe, parasite or virus in culture; conditions: Burkholderia multivorans, AU10086
T11 construct: AU10086
Procedure, shortened: as §1

B. multivorans AU30438 = test system: T12, B. multivorans AU30438; assay: microbe, parasite or virus in culture; conditions: Burkholderia multivorans, AU30438
T12 construct: AU30438
Procedure, shortened: as §1

B. pyrrocinia AU1114 = test system: T13, B. pyrrocinia AU1114; assay: microbe, parasite or virus in culture; conditions: Burkholderia pyrrocinia, AU1114
T13 construct: AU1114
Procedure, shortened: as §1

B. cenocepacia AU9292 = test system: T14, B. cenocepacia AU9292; assay: microbe, parasite or virus in culture; conditions: Burkholderia cenocepacia, AU9292
T14 construct: AU9292
Procedure, shortened: as §1

B. multivorans AU23690 = test system: T15, B. multivorans AU23690; assay: microbe, parasite or virus in culture; conditions: Burkholderia multivorans, AU23690
T15 construct: AU23690
Procedure, shortened: as §1

B. multivorans AU11358 = test system: T16, B. multivorans AU11358; assay: microbe, parasite or virus in culture; conditions: Burkholderia multivorans, AU11358
T16 construct: AU11358
Procedure, shortened: as §1

B. gladioli AU21101 = test system: T17, B. gladioli AU21101; assay: organism not typed
T17 construct: AU21101
Procedure, shortened: as §1

B. multivorans AU17135 = test system: T18, B. multivorans AU17135; assay: microbe, parasite or virus in culture; conditions: Burkholderia multivorans, AU17135
T18 construct: AU17135
Procedure, shortened: as §1

B. multivorans AU25543 = test system: T19, B. multivorans AU25543; assay: microbe, parasite or virus in culture; conditions: Burkholderia multivorans, AU25543
T19 construct: AU25543
Procedure, shortened: as §1

B. gladioli AU29223 = test system: T20, B. gladioli AU29223; assay: organism not typed
T20 construct: AU29223
Procedure, shortened: as §1

B. multivorans AU28069 = test system: T21, B. multivorans AU28069; assay: microbe, parasite or virus in culture; conditions: Burkholderia multivorans, AU28069
T21 construct: AU28069
Procedure, shortened: as §1

B. cenocepacia AU21083 = test system: T22, B. cenocepacia AU21083; assay: microbe, parasite or virus in culture; conditions: Burkholderia cenocepacia, AU21083
T22 construct: AU21083
Procedure, shortened: as §1

Row | SMILES | MIC (B. multivorans AU14364) [µg/mL] | MIC [1] [µg/mL] | MIC (B. multivorans AU30760) [µg/mL] | MIC (B. contaminans AU22662) [µg/mL] | MIC (B. multivorans AU28442) [µg/mL] | MIC (B. cenocepacia AU12659) [µg/mL] | MIC (B. multivorans AU30050) [µg/mL] | MIC (B. multivorans AU23995) [µg/mL] | MIC (B. vietnamiensis AU5003) [µg/mL] | MIC (B. multivorans AU10047) [µg/mL] | MIC (B. multivorans AU10086) [µg/mL] | MIC (B. multivorans AU30438) [µg/mL] | MIC (B. pyrrocinia AU1114) [µg/mL] | MIC (B. cenocepacia AU9292) [µg/mL] | MIC (B. multivorans AU23690) [µg/mL] | MIC (B. multivorans AU11358) [µg/mL] | MIC (B. gladioli AU21101) [µg/mL] | MIC (B. multivorans AU17135) [µg/mL] | MIC (B. multivorans AU25543) [µg/mL] | MIC (B. gladioli AU29223) [µg/mL] | also measured
1 | CO/N=C(\C(=O)N[C@@H]1C(=O)N2C(C(=O)[O-])=C(C[N+]3(C)CCCC3)CS[C@H]12)c1csc(N)n1 [cefepime] | > 32 | > 32 | 8 (≈ 16.6 µM) | 16 (≈ 33.3 µM) | > 32 | 16 (≈ 33.3 µM) | 2 (≈ 4.16 µM) | > 32 | > 32 | 32 (≈ 66.6 µM) | 32 (≈ 66.6 µM) | 16 (≈ 33.3 µM) | 8 (≈ 16.6 µM) | 32 (≈ 66.6 µM) | 32 (≈ 66.6 µM) | 8 (≈ 16.6 µM) | 16 (≈ 33.3 µM) | 4 (≈ 8.32 µM) | 4 (≈ 8.32 µM) | 16 (≈ 33.3 µM) | MIC (B. multivorans AU28069): 8 µg/mL (≈ 16.6 µM); MIC (B. cenocepacia AU21083): 16 µg/mL (≈ 33.3 µM)
2 | C[C@H]1COc2c(N3CCN(C)CC3)c(F)cc3c(=O)c(C(=O)O)cn1c23 [levofloxacin] | 32 (≈ 88.6 µM) | 16 (≈ 44.3 µM) | 2 (≈ 5.53 µM) | 4 (≈ 11.1 µM) | 16 (≈ 44.3 µM) | 1 (≈ 2.77 µM) | 1 (≈ 2.77 µM) | 4 (≈ 11.1 µM) | 8 (≈ 22.1 µM) | 8 (≈ 22.1 µM) | > 32 | 4 (≈ 11.1 µM) | > 32 | 32 (≈ 88.6 µM) | > 32 | 2 (≈ 5.53 µM) | 1 (≈ 2.77 µM) | 2 (≈ 5.53 µM) | 2 (≈ 5.53 µM) | 0.5 (≈ 1.38 µM) | MIC (B. multivorans AU28069): 4 µg/mL (≈ 11.1 µM); MIC (B. cenocepacia AU21083): 2 µg/mL (≈ 5.53 µM)
3 | C[C@@H](O)[C@H]1C(=O)N2C(C(=O)O)=C(S[C@@H]3CN[C@H](C(=O)N(C)C)C3)[C@H](C)[C@H]12 [meropenem] | 4 (≈ 10.4 µM) | 8 (≈ 20.9 µM) | 2 (≈ 5.22 µM) | 4 (≈ 10.4 µM) | > 32 | 4 (≈ 10.4 µM) | 2 (≈ 5.22 µM) | 8 (≈ 20.9 µM) | 4 (≈ 10.4 µM) | 16 (≈ 41.7 µM) | 32 (≈ 83.4 µM) | 4 (≈ 10.4 µM) | 4 (≈ 10.4 µM) | 4 (≈ 10.4 µM) | 4 (≈ 10.4 µM) | 8 (≈ 20.9 µM) | 1 (≈ 2.61 µM) | 4 (≈ 10.4 µM) | 1 (≈ 2.61 µM) | 1 (≈ 2.61 µM) | MIC (B. multivorans AU28069): 4 µg/mL (≈ 10.4 µM); MIC (B. cenocepacia AU21083): 4 µg/mL (≈ 10.4 µM)
